In US10759816B2, “Heterocyclic compounds as RSV inhibitors” (Enanta Pharmaceuticals, Inc., priority 2016, dated 2020):

Test system: genotype A, "Long" strain RSV
Assay: RSV-A in vitro cytoprotection assay in HEp-2 cells (ATPlite readout of cell viability)
Assay type: cell-based, Human respiratory syncytial virus
Conditions: human respiratory syncytial virus, HEp-2, HEp-2 cells, genotype A “Long” strain RSV, cytoprotection; read-out: Human RSV-A (“Long” strain) EC50
How it was run: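 HEp-2 cells (8,000/well) given 2-fold compound dilutions in duplicate, then infected with RSV-A Long strain stock; viability read by ATPlite luminescence after 4 days. EC50 derived from cytoprotection; cytotoxicity measured on parallel uninfected plate.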

| Structure (SMILES) | EC50 [nM] |
| --- | --- |
| O=C(NC1CC1)c1cc2c(s1)-c1ccccc1N(C(=O)c1cccc(-c3cncc(N4CCOCC4)c3)n1)CC2 [Example 157] | 400 to 800 |
| COc1ccccc1CN(c1cccc(C(=O)N2CCc3cc(C(=O)Nc4c(C)cccc4F)sc3-c3ccccc32)n1)C1CC1 [Example 342] | 400 to 800 |
| O=C(NC1CC1)c1cc2c(s1)-c1ccccc1N(C(=O)c1ccc3ccc(-c4ccncc4)cc3n1)CC2 [Example 186] | > 800 |
| Cn1ccc(-c2cccc(C(=O)N3CCc4cc(C(=O)Nc5ccccc5N)sc4-c4ccccc43)n2)n1 [Example 240] | > 800 |
| Cc1cccc(F)c1NC(=O)c1cc2c(s1)-c1ccccc1N(C(=O)c1cccc(-n3nnc4ncccc43)n1)CC2 [Example 123] | > 800 |
| Cc1cccc(F)c1NC(=O)c1cc2c(s1)-c1ccccc1N(C(=O)c1cccc(N3C(=O)OC[C@@H]3C(C)C)n1)CC2 [Example 475] | < 400 |
| Cc1cccc(F)c1NC(=O)c1cc2c(s1)-c1ccccc1N(C(=O)c1cccc(-c3cncn3C3CC3)n1)CC2 [Example 233] | < 400 |
| Cc1cccc(F)c1NC(=O)c1cc2c(s1)-c1ccccc1N(C(=O)c1cccc(NCCOC(C)C)n1)CC2 [Example 331] | < 400 |
| O=C(Nc1ccccn1)c1cc2c(s1)-c1ccccc1N(C(=O)c1cccc(N3CCOc4ccccc4C3)n1)CC2 [Example 300] | > 800 |
| CC(=O)N1CCCN(c2cccc(C(=O)N3CCc4cc(C(=O)Nc5c(C)cccc5F)sc4-c4ccccc43)n2)c2ccccc21 [Example 378] | < 400 |
| Cc1cccc(F)c1NC(=O)c1cc2c(s1)-c1ccccc1N(C(=O)c1cccc(N[C@H]3CCOC3)n1)CC2 [Example 457] | < 400 |
| Cc1cccc(F)c1NC(=O)c1cc2c(s1)-c1ccccc1N(C(=O)c1cccc(N3CCOc4cccc(Br)c4C3)n1)CC2 [Example 369] | 400 to 800 |
| COc1cccc(Nc2cccc(C(=O)N3CCc4cc(C(=O)NC5CC5)sc4-c4ccccc43)n2)n1 [Example 409] | > 800 |
| Cc1cccc(F)c1NC(=O)c1cc2c(s1)-c1ccccc1N(C(=O)c1cccc(N3CCCN(C(=O)C4CC4)CC3)n1)CC2 [Example 388] | < 400 |
| Cc1cccc(F)c1NC(=O)c1cc2c(s1)-c1ccccc1N(C(=O)c1cccc(N[C@@H]3CCOC3)n1)CC2 [Example 456] | < 400 |
| Cn1ccnc1NC(=O)c1cc2c(s1)-c1ccccc1N(C(=O)c1cccc(N3CCOc4ccccc4C3)n1)CC2 [Example 302] | > 800 |
| O=C(NC1CC1)c1cc2c(s1)-c1ccccc1N(C(=O)c1cccc(-c3cn[nH]c3C3CC3)n1)CC2 [Example 164] | < 400 |
| Cc1cccc(F)c1NC(=O)c1cc2c(s1)-c1ccccc1N(C(=O)c1cccc(N3CCCN(S(=O)(=O)C4CCCCC4)CC3)n1)CC2 [Example 385] | < 400 |
| COC[C@H]1CCCN1c1cccc(C(=O)N2CCc3cc(C(=O)Nc4c(C)cccc4F)sc3-c3cc(F)ccc32)n1 [Example 359] | < 400 |
| O=C(NC1CC1)c1cc2c(s1)-c1ccccc1N(S(=O)(=O)c1cccc(-c3ccnc(N4CCOCC4)c3)n1)CC2 [Example 103] | > 800 |
| O=C(NC1CC1)c1cc2c(s1)-c1ccccc1N(C(=O)c1cccc(N3CCOc4ccccc4C3=O)n1)CC2 [Example 414] | > 800 |
| Cc1cccc(F)c1NC(=O)c1cc2c(s1)-c1ccccc1N(C(=O)c1cccc(N3CC4(COC4)C3)n1)CC2 [Example 426] | > 800 |

| Structure (SMILES) | EC50 [nM] |
| --- | --- |
| Cc1cccc(F)c1NC(=O)c1cc2c(s1)-c1ccccc1N(C(=O)c1cccc(N3CCCOc4ccccc43)n1)CC2 [Example 404] | < 400 |
| O=C(NC1CC1)c1cc2c(s1)-c1ccccc1N(C(=O)c1cccc(N3CC4CCC(C3)O4)n1)CC2 [Example 28] | < 400 |
| Cc1cccc(F)c1NC(=O)c1cc2c(s1)-c1ccccc1N(C(=O)c1cccc(-c3cn(CS(C)(=O)=O)nc3C3CC3)n1)CC2 [Example 231] | > 800 |
| CN1CC(NC(=O)c2cc3c(s2)-c2ccccc2N(C(=O)c2cccc(-c4c[nH]nc4C4CC4)n2)CC3)C1 [Example 183] | > 800 |
| COCCNC(=O)c1cc2c(s1)-c1ccccc1N(C(=O)c1cccc(-c3ccc(OC)nc3)n1)CC2 [Example 97] | 400 to 800 |
| Cc1cccc(F)c1NC(=O)c1cc2c(o1)-c1ccccc1N(C(=O)c1cccc(-c3c[nH]nc3C3CC3)n1)CC2 [Example 275] | < 400 |
| Cc1cccc(F)c1NC(=O)c1cc2c(s1)-c1ccccc1N(C(=O)c1cccc(N3CCOc4ccc(Br)cc4C3)n1)CC2 [Example 367] | < 400 |
| CNC(=O)c1cc2c(s1)-c1ccccc1N(C(=O)c1cccc(-c3ccc(OC)nc3)n1)CC2 [Example 94] | > 800 |
| CC(=O)N1CCCN(c2cccc(C(=O)N3CCc4cc(C(=O)Nc5c(C)cccc5F)sc4-c4ccccc43)n2)CC1 [Example 387] | < 400 |
| CC(C)(Nc1cccc(C(=O)N2CCc3cc(C(=O)NC4CC4)sc3-c3ccccc32)n1)c1ccccn1 [Example 293] | > 800 |
| Cc1cccc(F)c1NC(=O)c1cc2c(s1)-c1ccccc1N(C(=O)c1cccc(N(C)CC3Cc4ccccc4O3)n1)CC2 (centres unmarked) [Example 117] | < 400 |
| Cc1cnc(N2CCC3(COC3)C2)c(NC(=O)c2ccc(C(=O)N3CCc4cc(C(=O)Nc5c(C)cccc5F)sc4-c4ccccc43)cc2)c1 [Example 139] | > 800 |
| Cc1cccc(F)c1NC(=O)c1cc2c(s1)-c1ccccc1N(C(=O)c1cccc(N3CCC[C@@H]3C#N)n1)CC2 [Example 474] | < 400 |
| O=C(NC1CC1)c1cc2c(s1)-c1ccccc1N(C(=O)c1cccc(N[C@@H]3CCOC3)n1)CC2 [Example 290] | > 800 |
| Cc1cccc(F)c1NC(=O)c1cc2c(s1)-c1ccccc1N(C(=O)c1cccc(N3CCOc4ccc(Cl)cc4C3)n1)CC2 [Example 417] | < 400 |
| O=C(NC1CC1)c1cc2c(s1)-c1ccccc1N(C(=O)c1ccc(NC(=O)N3CCOCC3c3ccccc3)cc1)CC2 (centres unmarked) [Example 15] | > 800 |
| CCn1nccc1-c1cccc(C(=O)N2CCc3cc(C(=O)Nc4c(C)cccc4F)oc3-c3ccccc32)n1 [Example 273] | > 800 |
| Cc1cccc(F)c1NC(=O)c1cc2c(s1)-c1ccccc1N(C(=O)c1cccc(-c3cn[nH]c3)n1)CC2 [Example 213] | < 400 |
| Cc1cccc(F)c1NC(=O)c1cc2c(s1)-c1ccccc1N(C(=O)c1cccc(N3CC4CC5CC(C4)CC3C5)n1)CC2 [Example 442] | > 800 |
| O=C(NC1CC1)c1cc2c(s1)-c1ccccc1N(C(=O)c1cccc(-c3ccc(C(=O)N4CCOCC4)cc3)n1)CC2 [Example 68] | 400 to 800 |
| Cc1cccc(F)c1NC(=O)c1ccc2c(c1)CCN(C(=O)c1cccc(N3CCCOCC3)n1)c1ccccc1-2 [Example 396] | > 800 |
| Cc1cccc(F)c1NC(=O)c1cc2c(s1)-c1ccccc1N(C(=O)c1cccc(-c3ccc4ncccc4c3)n1)CC2 [Example 188] | < 400 |

| Structure (SMILES) | EC50 [nM] |
| --- | --- |
| CC(=O)N1CCC(c2cccc(C(=O)N3CCc4cc(C(=O)NC5CC5)sc4-c4ccccc43)n2)CC1 [Example 58] | 400 to 800 |
| Cc1cccc(F)c1NC(=O)c1cc2c(s1)-c1ccccc1N(C(=O)c1cccc(N3C(=O)Cc4ccccc43)n1)CC2 [Example 451] | > 800 |
| Cc1cccc(F)c1NC(=O)c1cc2c(s1)-c1ccccc1N(C(=O)c1cccc(N3CCC4(COC4)C3)n1)CC2 [Example 427] | > 800 |
| N[C@@H]1CCN(c2cccc(C(=O)N3CCc4cc(C(=O)NC5CC5)sc4-c4ccccc43)n2)C1 [Example 38] | > 800 |
| Cc1cccc(F)c1NC(=O)c1cc2c(s1)-c1ccccc1N(C(=O)c1cccc(N3CCC[C@H]3c3ccccn3)n1)CC2 [Example 485] | > 800 |
| CCS(=O)(=O)CCNc1cccc(C(=O)N2CCc3cc(C(=O)Nc4c(C)cccc4F)sc3-c3ccccc32)n1 [Example 494] | < 400 |
| Cc1cccc(F)c1NC(=O)c1cc2c(s1)-c1ccccc1N(C(=O)c1cccc(N3CCCN(S(=O)(=O)C4CC4)CC3)n1)CC2 [Example 382] | < 400 |
| O=C(NC1CC1)c1cc2c(s1)-c1ccccc1N(C(=O)c1ccc(Cl)c(-c3ccnc(N4CCOCC4)c3)n1)CC2 [Example 93] | > 800 |
| COCC(C)(C)CNc1cccc(C(=O)N2CCc3cc(C(=O)NC4CC4)sc3-c3ccccc32)n1 [Example 321] | > 800 |
| O=C(NC1CC1)c1ccc2c(c1)CCN(C(=O)c1cccc(N3CCOc4ccccc4C3)n1)c1ccccc1-2 [Example 397] | > 800 |
| COc1ccc(Oc2cccc(C(=O)N3CCc4cc(C(=O)Nc5c(C)cccc5F)sc4-c4ccccc43)n2)nc1 [Example 408] | > 800 |
| O=C(N[C@H]1CCOC1)c1cc2c(s1)-c1ccccc1N(C(=O)c1cccc(N3CCOc4ccccc4C3)n1)CC2 [Example 310] | < 400 |
| CN(C)C(=O)c1cc2c(s1)-c1ccccc1N(C(=O)c1cccc(N3CCCOCC3)n1)CC2 [Example 99] | > 800 |
| O=C(NC1CC1)c1cc2c(s1)-c1ccccc1N(C(=O)c1cncc(N3CCOCC3)n1)CC2 [Example 53] | 400 to 800 |
| Cc1cccc(F)c1NC(=O)c1cc2c(s1)-c1ccccc1N(C(=O)c1cccc(-n3cncc3C3CC3)n1)CC2 [Example 148] | > 800 |
| COc1ccc(=O)n(-c2cccc(C(=O)N3CCc4cc(C(=O)Nc5c(C)cccc5F)sc4-c4ccccc43)n2)c1 [Example 407] | > 800 |
| O=C(NC1CC1)c1cc2c(s1)-c1ccccc1N(C(=O)c1cccc(N3CCOCC(C(=O)N4CCOCC4)C3)n1)CC2 (centres unmarked) [Example 285] | > 800 |
| Cc1cccc(F)c1NC(=O)c1cc2c(s1)-c1ccccc1N(C(=O)c1cccc(N3CCS(=O)(=O)C(C)(C)C3)n1)CC2 [Example 431] | < 400 |
| Cc1cccc(F)c1NC(=O)c1cc2c(s1)-c1ccccc1N(C(=O)c1cccc(-c3cn(C(=O)OC(C)(C)C)c4ccc(Cl)cc34)n1)CC2 [Example 248] | > 800 |
| Cc1cccc(F)c1NC(=O)c1cc2c(s1)-c1ccccc1N(C(=O)c1cccc(-c3conc3C)n1)CC2 [Example 261] | < 400 |
| CN(C)c1cc(-c2cccc(C(=O)N3CCc4cc(C(=O)NC5CC5)sc4-c4ccccc43)n2)ccn1 [Example 84] | 400 to 800 |
